Converted amounts (≈) assume the structure as drawn. The source made the active and inactive calls. The rule behind the calls is not given here.
Assays:
[1] = system: Staphylococcus aureus; assay: Antibacterial activity methicillin-resistant Staphylococcus aureus 011 assessed as inhibition of bacterial growth incubated for 24 hrs by CLSI based analysis; assay type: functional
[2] = system: Staphylococcus aureus; assay: Antibacterial activity Staphylococcus aureus assessed as inhibition of bacterial growth incubated for 24 hrs by CLSI based analysis; assay type: functional
[3] = system: Enterococcus; assay: Antibacterial activity vancomycin-resistant Enterococcus assessed as inhibition of bacterial growth incubated for 24 hrs by CLSI based analysis; assay type: functional
[4] = system: Staphylococcus aureus; assay: Antibacterial activity methicillin-resistant Staphylococcus aureus 003 assessed as inhibition of bacterial growth incubated for 24 hrs by CLSI based analysis; assay type: functional
[5] = system: Acinetobacter baumannii; assay: Antibacterial activity Acinetobacter baumannii assessed as inhibition of bacterial growth incubated for 24 hrs by CLSI based analysis; assay type: functional
[6] = system: Escherichia coli; assay: Antibacterial activity Escherichia coli assessed as inhibition of bacterial growth incubated for 24 hrs by CLSI based analysis; assay type: functional
[7] = system: Staphylococcus aureus; assay: Antibacterial activity methicillin-resistant Staphylococcus aureus 003 assessed as inhibition of H2S production at 50 uM; assay type: functional
[8] = system: Staphylococcus aureus; assay: Bactericidal activity against methicilin-resistant Staphylococcus aureus 003 at 4 times MIC measured after 24 hrs by time kill assay; assay type: functional, organism-based
[9] = system: Staphylococcus aureus; assay: In vivo antibacterial activity against methicilin-resistant Staphylococcus aureus infected in ICR mouse skin infection model assessed as wound area at 40 mg/kg, ip preadministered with compound for 24 hrs followed by bacterial infection and measured after 3 days; assay type: functional; conditions: time 96 hrs
[10] = system: Staphylococcus aureus; assay: Bactericidal activity against Staphylococcus aureus at 4 times MIC measured after 24 hrs by time kill assay; assay type: functional, organism-based

| SMILES | MIC [1] | MIC [2] | MIC [3] | MIC [4] | MIC [5] | MIC [6] | inhibition at 50 µM [7] | Activity [8] | Activity [9] | Activity [10] |
| --- | --- | --- | --- | --- | --- | --- | --- | --- | --- | --- |
| COc1cccc(OC)c1C(=O)N[C@@H]1C(=O)N2[C@@H]1SC(C)(C)[C@@H]2C(=O)[O-].[Na+] | > 128 µg/mL | 1 µg/mL | 32 µg/mL | > 128 µg/mL | – | – | – | – | – | – |
| CC(C)CCCCC(=O)N[C@@H](CCN)C(=O)N[C@H](C(=O)N[C@@H](CCN)C(=O)N[C@H]1CCNC(=O)[C@H]([C@@H](C)O)NC(=O)[C@H](CCN)NC(=O)[C@H](CCN)NC(=O)[C@H](CC(C)C)NC(=O)[C@@H](Cc2ccccc2)NC(=O)[C@@H](CCN)NC1=O)[C@@H](C)O.O=S(=O)(O)O | 16 µg/mL | 8 µg/mL | 128 µg/mL | 16 µg/mL | 1 µg/mL | 0.25 µg/mL | – | – | – | – |
| NOCC(=O)O [CARBOXYMETHOXYLAMINE] | – | – | – | – | – | – | 30% | – | – | – |
| CO[C@@]1(NC(=O)Cc2cccs2)C(=O)N2C(C(=O)O)=C(COC(N)=O)CS[C@@H]21 [CEFOXITIN] | > 128 µg/mL | 2 µg/mL (≈ 4.68 µM) | > 128 µg/mL | > 128 µg/mL | – | – | – | inactive | 0.28 cm2 | inactive |
